Measured values from ChEMBL document CHEMBL5696441 (Nat Chem Biol, 2011).

Columns and labels:
[1] = target: T1, Aurora kinase A (Homo sapiens) (UniProt O14965); assay: Inhibition of AURKA (unknown origin) assessed as remaining activity at 1 uM by Kinome scan method relative to control
T1 sequence (whole entry): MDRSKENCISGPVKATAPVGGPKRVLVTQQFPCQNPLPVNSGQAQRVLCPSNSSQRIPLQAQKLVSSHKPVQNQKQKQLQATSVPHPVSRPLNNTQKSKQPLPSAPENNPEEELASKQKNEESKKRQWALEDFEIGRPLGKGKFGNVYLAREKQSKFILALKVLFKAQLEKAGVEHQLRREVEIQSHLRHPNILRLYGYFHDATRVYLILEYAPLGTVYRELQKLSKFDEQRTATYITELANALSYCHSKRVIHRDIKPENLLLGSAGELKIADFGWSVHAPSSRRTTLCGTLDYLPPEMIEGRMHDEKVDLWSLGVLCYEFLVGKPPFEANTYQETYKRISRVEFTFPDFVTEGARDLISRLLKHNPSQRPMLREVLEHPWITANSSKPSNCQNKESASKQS

[2] = target: T2, Tyrosine-protein kinase JAK3 (Homo sapiens) (UniProt P52333); assay: Inhibition of JAK3 JH1 domain (unknown origin) assessed as remaining activity at 1 uM by Kinome scan method relative to control
T2 sequence (whole entry): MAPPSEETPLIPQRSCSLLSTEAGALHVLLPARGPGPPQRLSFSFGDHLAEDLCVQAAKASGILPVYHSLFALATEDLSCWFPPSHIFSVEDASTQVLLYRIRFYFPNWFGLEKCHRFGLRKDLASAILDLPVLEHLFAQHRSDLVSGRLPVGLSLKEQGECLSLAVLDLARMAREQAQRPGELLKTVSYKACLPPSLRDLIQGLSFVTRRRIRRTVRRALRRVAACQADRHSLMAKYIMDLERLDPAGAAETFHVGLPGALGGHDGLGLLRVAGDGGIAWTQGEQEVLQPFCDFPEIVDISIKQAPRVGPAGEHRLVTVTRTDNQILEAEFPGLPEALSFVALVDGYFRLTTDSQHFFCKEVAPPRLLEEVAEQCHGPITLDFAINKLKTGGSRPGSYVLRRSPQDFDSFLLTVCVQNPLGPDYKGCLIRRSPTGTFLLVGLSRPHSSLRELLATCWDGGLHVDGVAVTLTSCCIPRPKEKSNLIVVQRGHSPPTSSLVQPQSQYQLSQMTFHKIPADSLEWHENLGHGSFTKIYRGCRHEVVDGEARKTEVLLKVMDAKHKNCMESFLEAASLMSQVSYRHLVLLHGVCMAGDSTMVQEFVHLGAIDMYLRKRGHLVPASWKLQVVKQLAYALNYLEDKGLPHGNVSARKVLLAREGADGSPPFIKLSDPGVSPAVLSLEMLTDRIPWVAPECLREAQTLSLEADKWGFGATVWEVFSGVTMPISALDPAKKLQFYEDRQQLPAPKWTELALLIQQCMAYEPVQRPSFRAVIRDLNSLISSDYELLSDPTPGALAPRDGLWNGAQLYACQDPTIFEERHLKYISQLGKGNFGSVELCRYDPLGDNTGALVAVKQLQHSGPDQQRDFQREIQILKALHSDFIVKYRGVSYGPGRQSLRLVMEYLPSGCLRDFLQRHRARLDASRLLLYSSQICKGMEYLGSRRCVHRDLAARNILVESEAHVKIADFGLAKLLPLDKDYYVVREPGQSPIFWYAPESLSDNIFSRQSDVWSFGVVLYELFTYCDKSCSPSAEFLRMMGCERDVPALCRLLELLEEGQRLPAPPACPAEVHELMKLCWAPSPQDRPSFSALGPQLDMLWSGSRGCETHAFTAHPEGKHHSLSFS

[3] = target: Ribosomal protein S6 kinase alpha-4 (Homo sapiens) (UniProt O75676); assay: Inhibition of C-terminal kinase domain RPS6KA4 (unknown origin) assessed as remaining activity at 1 uM by Kinome scan method relative to control
Chain of Ribosomal protein S6 kinase alpha-4 (Homo sapiens) (O75676 whole entry, looked up, the tested form may be a part): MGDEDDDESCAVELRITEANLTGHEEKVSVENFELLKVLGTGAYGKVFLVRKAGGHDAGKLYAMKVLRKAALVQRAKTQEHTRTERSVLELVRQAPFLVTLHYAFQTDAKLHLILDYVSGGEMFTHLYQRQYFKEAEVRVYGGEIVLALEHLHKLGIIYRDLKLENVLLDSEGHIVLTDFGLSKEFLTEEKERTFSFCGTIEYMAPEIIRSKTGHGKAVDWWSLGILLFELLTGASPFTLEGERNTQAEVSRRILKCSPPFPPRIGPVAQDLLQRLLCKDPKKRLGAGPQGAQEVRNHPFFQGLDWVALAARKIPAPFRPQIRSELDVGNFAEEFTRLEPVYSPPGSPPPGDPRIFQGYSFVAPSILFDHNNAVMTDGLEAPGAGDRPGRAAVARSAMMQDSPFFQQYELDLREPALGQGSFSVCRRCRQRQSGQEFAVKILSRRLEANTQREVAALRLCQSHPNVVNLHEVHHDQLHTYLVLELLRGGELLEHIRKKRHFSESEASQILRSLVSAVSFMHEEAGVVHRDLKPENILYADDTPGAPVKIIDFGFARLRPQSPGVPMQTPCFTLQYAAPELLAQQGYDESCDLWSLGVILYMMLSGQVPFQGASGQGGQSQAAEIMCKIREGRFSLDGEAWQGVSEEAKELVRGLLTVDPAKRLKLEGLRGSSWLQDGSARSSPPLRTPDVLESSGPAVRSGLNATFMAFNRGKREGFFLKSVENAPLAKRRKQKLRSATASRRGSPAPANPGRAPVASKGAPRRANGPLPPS

[4] = target: Mitogen-activated protein kinase kinase kinase kinase 4 (Homo sapiens) (UniProt O95819); assay: Inhibition of MAP4K4 (unknown origin) assessed as remaining activity at 1 uM by Kinome scan method relative to control
[5] = target: Vascular endothelial growth factor receptor 1 (Homo sapiens) (UniProt P17948); assay: Inhibition of FLT1 (unknown origin) assessed as remaining activity at 1 uM by Kinome scan method relative to control
Chain of Vascular endothelial growth factor receptor 1 (Homo sapiens) (P17948 whole entry): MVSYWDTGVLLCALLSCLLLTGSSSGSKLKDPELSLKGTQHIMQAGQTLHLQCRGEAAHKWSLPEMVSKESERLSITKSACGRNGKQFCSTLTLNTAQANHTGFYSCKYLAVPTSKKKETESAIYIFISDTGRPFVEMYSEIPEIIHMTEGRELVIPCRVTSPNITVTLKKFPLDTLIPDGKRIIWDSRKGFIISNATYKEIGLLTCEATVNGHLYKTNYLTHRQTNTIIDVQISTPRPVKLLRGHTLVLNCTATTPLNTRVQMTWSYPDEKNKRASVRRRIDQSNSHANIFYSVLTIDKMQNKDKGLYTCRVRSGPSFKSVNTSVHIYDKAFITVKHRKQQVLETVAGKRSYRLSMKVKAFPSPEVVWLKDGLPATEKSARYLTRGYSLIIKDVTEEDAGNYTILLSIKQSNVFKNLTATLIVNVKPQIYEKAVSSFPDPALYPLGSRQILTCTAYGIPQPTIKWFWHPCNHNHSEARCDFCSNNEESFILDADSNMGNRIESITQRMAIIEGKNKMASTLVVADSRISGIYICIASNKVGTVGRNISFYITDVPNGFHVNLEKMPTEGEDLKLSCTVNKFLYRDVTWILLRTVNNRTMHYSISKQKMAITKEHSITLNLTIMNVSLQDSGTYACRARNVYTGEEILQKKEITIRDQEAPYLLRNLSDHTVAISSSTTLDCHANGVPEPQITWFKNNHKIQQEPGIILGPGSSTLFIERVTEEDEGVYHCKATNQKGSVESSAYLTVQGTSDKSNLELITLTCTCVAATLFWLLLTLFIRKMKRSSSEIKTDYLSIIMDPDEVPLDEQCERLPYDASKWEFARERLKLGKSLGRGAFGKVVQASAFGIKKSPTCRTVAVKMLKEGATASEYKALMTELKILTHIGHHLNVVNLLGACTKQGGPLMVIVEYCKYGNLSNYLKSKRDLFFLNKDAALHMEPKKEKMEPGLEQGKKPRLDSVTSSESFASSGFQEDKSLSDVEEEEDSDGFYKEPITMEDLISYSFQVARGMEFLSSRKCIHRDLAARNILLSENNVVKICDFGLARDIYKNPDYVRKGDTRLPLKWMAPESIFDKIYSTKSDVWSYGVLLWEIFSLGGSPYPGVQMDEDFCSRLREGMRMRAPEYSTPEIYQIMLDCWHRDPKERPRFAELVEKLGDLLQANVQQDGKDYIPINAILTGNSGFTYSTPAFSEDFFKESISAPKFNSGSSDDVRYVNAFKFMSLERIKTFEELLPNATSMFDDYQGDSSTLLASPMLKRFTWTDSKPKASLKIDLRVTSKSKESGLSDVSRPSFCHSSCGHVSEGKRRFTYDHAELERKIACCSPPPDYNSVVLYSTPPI

[6] = target: T3, MAP/microtubule affinity-regulating kinase 4 (Homo sapiens) (UniProt Q96L34); assay: Inhibition of MARK4 (unknown origin) assessed as remaining activity at 1 uM by Kinome scan method relative to control
T3 sequence (whole entry): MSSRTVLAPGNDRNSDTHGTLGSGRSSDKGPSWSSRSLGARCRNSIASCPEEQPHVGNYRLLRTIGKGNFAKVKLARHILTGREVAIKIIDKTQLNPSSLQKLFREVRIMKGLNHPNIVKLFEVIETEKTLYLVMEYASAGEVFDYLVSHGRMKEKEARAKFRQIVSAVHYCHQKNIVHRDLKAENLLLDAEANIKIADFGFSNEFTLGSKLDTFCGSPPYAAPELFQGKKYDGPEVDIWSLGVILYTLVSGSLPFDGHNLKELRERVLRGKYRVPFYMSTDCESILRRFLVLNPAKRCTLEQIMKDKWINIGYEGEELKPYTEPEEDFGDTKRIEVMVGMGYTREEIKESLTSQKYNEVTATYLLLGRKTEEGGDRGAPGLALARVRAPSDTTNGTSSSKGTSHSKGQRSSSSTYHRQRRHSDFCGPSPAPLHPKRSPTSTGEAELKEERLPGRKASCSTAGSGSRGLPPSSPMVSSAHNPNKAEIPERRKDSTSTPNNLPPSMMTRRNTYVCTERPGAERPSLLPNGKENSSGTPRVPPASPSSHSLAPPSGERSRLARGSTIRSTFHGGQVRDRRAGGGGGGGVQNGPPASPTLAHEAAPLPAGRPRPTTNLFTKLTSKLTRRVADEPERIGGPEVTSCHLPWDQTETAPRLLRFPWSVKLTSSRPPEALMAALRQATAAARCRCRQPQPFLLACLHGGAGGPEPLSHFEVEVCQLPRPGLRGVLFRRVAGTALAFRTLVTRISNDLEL

[7] = target: BDNF/NT-3 growth factors receptor (Homo sapiens) (UniProt Q16620); assay: Inhibition of TRKB (unknown origin) assessed as remaining activity at 1 uM by Kinome scan method relative to control
Chain of BDNF/NT-3 growth factors receptor (Homo sapiens) (Q16620 32-822 limits assumed): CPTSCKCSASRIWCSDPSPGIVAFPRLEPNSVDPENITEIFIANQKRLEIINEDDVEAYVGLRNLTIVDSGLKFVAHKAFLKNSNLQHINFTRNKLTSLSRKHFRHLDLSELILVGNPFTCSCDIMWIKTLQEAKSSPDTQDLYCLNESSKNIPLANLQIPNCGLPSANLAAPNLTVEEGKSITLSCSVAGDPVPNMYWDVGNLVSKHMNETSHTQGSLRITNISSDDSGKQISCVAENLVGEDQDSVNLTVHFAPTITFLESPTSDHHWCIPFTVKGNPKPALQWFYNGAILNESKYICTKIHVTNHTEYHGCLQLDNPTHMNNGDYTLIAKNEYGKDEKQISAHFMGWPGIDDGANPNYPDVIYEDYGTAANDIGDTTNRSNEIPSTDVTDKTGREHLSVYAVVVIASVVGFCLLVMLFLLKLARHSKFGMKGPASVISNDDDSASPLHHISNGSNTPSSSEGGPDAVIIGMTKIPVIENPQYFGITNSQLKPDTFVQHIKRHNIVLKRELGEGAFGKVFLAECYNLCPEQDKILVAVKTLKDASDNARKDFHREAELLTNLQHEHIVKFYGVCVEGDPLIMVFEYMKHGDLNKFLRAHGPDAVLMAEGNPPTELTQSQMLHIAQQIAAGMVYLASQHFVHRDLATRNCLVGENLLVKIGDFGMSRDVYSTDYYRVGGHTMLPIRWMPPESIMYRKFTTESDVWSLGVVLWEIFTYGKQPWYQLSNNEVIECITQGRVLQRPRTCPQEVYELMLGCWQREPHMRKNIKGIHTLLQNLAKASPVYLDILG

[8] = target: MAP kinase-interacting serine/threonine-protein kinase 2 (Homo sapiens) (UniProt Q9HBH9); assay: Inhibition of MKNK2 (unknown origin) assessed as remaining activity at 1 uM by Kinome scan method relative to control
Chain of MAP kinase-interacting serine/threonine-protein kinase 2 (Homo sapiens) (Q9HBH9 whole entry, looked up): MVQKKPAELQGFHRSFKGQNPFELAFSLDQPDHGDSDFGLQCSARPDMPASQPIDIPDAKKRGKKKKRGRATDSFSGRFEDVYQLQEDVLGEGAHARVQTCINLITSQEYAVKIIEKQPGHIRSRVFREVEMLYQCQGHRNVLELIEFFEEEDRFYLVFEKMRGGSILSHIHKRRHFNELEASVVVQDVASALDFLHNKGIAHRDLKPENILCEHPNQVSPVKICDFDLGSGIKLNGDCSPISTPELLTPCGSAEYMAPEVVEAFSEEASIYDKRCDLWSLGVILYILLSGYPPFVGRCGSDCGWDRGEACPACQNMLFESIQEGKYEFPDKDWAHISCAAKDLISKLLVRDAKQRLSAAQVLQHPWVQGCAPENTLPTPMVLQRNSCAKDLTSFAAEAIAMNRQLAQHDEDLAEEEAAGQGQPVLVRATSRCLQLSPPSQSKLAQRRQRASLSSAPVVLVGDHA

[9] = target: Maternal embryonic leucine zipper kinase (Homo sapiens) (UniProt Q14680); assay: Inhibition of MELK (unknown origin) assessed as remaining activity at 1 uM by Kinome scan method relative to control
Chain of Maternal embryonic leucine zipper kinase (Homo sapiens) (Q14680 whole entry, looked up): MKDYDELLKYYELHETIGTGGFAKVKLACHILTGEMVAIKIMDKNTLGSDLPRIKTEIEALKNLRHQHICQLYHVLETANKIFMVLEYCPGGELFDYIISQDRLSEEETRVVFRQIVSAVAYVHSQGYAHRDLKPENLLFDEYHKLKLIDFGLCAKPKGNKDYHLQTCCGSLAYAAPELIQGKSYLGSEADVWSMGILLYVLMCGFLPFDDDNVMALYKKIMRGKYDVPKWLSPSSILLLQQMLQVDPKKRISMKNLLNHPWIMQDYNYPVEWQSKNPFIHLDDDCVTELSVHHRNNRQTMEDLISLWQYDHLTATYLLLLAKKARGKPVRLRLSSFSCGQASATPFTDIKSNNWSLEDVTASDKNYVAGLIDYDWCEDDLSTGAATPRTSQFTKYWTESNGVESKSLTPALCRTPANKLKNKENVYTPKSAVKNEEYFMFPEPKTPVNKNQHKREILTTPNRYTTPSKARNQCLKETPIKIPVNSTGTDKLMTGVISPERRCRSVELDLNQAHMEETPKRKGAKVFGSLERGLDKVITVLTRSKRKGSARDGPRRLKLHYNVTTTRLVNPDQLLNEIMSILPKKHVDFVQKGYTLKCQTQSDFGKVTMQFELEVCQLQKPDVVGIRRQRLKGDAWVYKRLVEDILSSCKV

[10] = target: Serine/threonine-protein kinase 25 (Homo sapiens) (UniProt O00506); assay: Inhibition of YSK1 (unknown origin) assessed as remaining activity at 1 uM by Kinome scan method relative to control
Chain of Serine/threonine-protein kinase 25 (Homo sapiens) (O00506 whole entry, looked up): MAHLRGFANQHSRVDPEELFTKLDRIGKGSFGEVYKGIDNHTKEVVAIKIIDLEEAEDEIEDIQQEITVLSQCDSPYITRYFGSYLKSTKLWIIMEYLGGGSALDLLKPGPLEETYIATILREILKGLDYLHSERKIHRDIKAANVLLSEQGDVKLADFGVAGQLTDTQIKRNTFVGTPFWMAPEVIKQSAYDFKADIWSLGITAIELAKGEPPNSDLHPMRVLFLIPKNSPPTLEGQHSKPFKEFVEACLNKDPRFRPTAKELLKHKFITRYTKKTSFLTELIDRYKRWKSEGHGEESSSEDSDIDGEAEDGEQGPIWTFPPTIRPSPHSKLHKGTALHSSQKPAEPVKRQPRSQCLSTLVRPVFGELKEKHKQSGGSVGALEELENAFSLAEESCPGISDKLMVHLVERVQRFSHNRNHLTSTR

Row | Compound | Activity [1] [%] | Activity [2] [%] | Activity [3] [%] | Activity [4] [%] | Activity [5] [%] | Activity [6] [%] | Activity [7] [%] | Activity [8] [%] | Activity [9] [%] | Activity [10] [%]
1 | Nc1ccccc1Nc1ccc2c(c1)CCc1ccccc1C2=O | 93 | 96 | 85 | 94 | 85 | 90 | 85 | 88 | 86 | 92
2 | O=C1c2ccc(Nc3ccc(F)cc3F)cc2CCc2ccc(OC[C@H](O)CO)cc21 [Skepinone-L] | 100 | 91 | 100 | 100 | 82 | 100 | 100 | 72 | 94 | 100
